# Assay results: US7723029B2, “Biochips including ion transport detecting structures and methods of use” (Aviva Biosciences Corporation, priority 2002, dated 2010)
# System: RBL-1 cell
# Conditions: glass chip treated with base then H2O (FIG. 31) and conventional patch glass capillary (FIG. 30), addition of barium chloride
# Protocol: After baking, the glass chips were stored in de-ionized H2O for many hours (ranging from less than 1 hour to over 2 days). […] The whole cell recording on a RBL-1 cell on this chip for a ramping voltage protocol, in which the voltage applied across the cell membrane linearly varied with time from −120 mV to 60 mV at a rate of 120 mV/second, is shown in FIG. 29. […] With or without baking the chips, the glass chips were first treated with HNO3 (6 M) for 4 or 5 hours, then treated with NaOH (5M) for 30-45 minutes, and were then transferred into de-ionized H2O (pH=6-7) for storage/treatment. […] A ramping voltage protocol was used for the recording in FIG. 32, in which the voltage applied across the cell membrane linearly varied with time from −120 mV to 60 mV at a rate of 120 mV/second. […] A ramping voltage protocol was used for the recording in FIG. 33, in which the voltage applied across the cell membrane linearly varied with time from −120 mV to 60 mV at a rate of 120 mV/second. • (4) Laser polishing followed by Acid treatment and then by base treatment.
smiles,measurement,value
[Ba+2].[Cl-].[Cl-] [barium chloride],whole-cell current,inhibition of the whole-cell current
